The text below walks through data of ChEMBL document CHEMBL1201862, “PubChem BioAssay data set” (2004).

Common to all, as to assay: NCI anticancer screen, dose series, 48 h
Test [1] has as its system ACHN.
Test [2] has as its system CAKI-1.
Test [3] has as its system EKVX.
Test [4] has as its system HCT-116.
The subject of test [5] is HL-60.
In test [6] the test system is HOP-92.
Test [7] has as its system HT-29.
Test [8] has as its system IGROV-1.
Test [9] concerns M14.
Test [10] deals with MCF7.
Test [11] has as its system NCI-H23.
The test system of test [12] is OVCAR-4.
The subject of test [13] is RXF 393.
For test [14], the system named is SF-268.
Test [15] relates to SF-539.
Test [16] deals with SK-MEL-28.
In test [17] the test system is SN12C.
Test [18] relates to T47D.
In test [19] the test system is U-251.
For test [20], the system named is HCC 2998.

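Exposure lasted 48 hours, with cells grown in 96-well plates and compounds tested at five concentrations. GI50 marks 50% less growth.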 Active and inactive are the calls of the source. Rule as the data show it: active = GI50 up to about 1.1 µM and inactive = higher.

`CC1(C)CC(=O)C(C(c2cccc(O)c2O)C2C(=O)CC(C)(C)CC2=O)C(=O)C1`: the GI50 in test [1] was > 100 µM (inactive); in [2], > 100 µM (inactive); in [3], > 100 µM (inactive); in [4], > 100 µM (inactive); in [5], < 0.01 µM (active); in test [6], 49.3 µM (inactive). For the same compound, the GI50 was > 100 µM (inactive) in test [7]; 43.9 µM (inactive) in [8]; > 100 µM (inactive) in test [9]; 49.2 µM (inactive) in test [10]; > 100 µM (inactive) in [11]; > 100 µM (inactive) in test [12]. The GI50 in [13] is > 100 µM (inactive); in test [14] it was 73.8 µM (inactive); in test [15], > 100 µM (inactive); in [16], > 100 µM (inactive); in [17], > 100 µM (inactive); in test [18], 91.2 µM (inactive). Also, the GI50 in [19] is > 100 µM (inactive).

For `OC1(c2ccc(Cl)cc2)c2ccc(CN3CCCC3)cc2C2=NCCN21` (stereo not drawn), the GI50 in [1] was 16.7 µM (inactive); in test [2], 16.4 µM (inactive); in test [3], 15.2 µM (inactive); in test [4], 14.1 µM (inactive); in test [5], 12.6 µM (inactive); in test [6] it was 2.53 µM (inactive). For the same compound, the GI50 in test [7] is 13.1 µM (inactive); in test [8] it was 14.5 µM (inactive); in test [9], 3.66 µM (inactive); in [10], 16.8 µM (inactive); in test [11], 16.9 µM (inactive); in test [12], 12.3 µM (inactive). Besides, the GI50 in [13] is 8.26 µM (inactive); in test [14], 14.8 µM (inactive); in [15], 13.2 µM (inactive); in test [16] it was 10.7 µM (inactive); in test [17], 16.4 µM (inactive); in test [18], 18.5 µM (inactive). In [19], the GI50 is 14 µM (inactive).

For `[N-]=[N+]=NI1OC(=O)c2ccccc21`, the GI50 in [1] was 65.9 µM (inactive); in [2], 23.8 µM (inactive); in test [3], > 100 µM (inactive); in test [20], > 100 µM (inactive); in [4], > 100 µM (inactive); in test [5], 40.5 µM (inactive). In addition, the GI50 is 44.9 µM (inactive) in test [6]; > 100 µM (inactive) in [7]; > 100 µM (inactive) in test [8]; > 100 µM (inactive) in test [9]; 93.5 µM (inactive) in test [10]; > 100 µM (inactive) in [11]. Also, the GI50 is > 100 µM (inactive) in [12]; 32.2 µM (inactive) in [13]; 73.6 µM (inactive) in [14]; > 100 µM (inactive) in [15]; 47.2 µM (inactive) in test [16]; > 100 µM (inactive) in [17]. Also, the GI50 in [18] is > 100 µM (inactive); in test [19], 92.9 µM (inactive).

Regarding `O=c1ccn(C/C=C/c2ccccc2)c(=S)n1C/C=C/c1ccccc1`, the GI50 is > 100 µM (inactive) in [1]; > 100 µM (inactive) in test [2]; 66.8 µM (inactive) in test [3]; 50.7 µM (inactive) in test [20]; 44.6 µM (inactive) in test [4]; 13.8 µM (inactive) in test [5]. For the same compound, the GI50 in test [6] was > 100 µM (inactive); in test [7], > 100 µM (inactive); in test [8], > 100 µM (inactive); in test [9] it was 73.6 µM (inactive); in [10], 18.3 µM (inactive); in test [11], 33.3 µM (inactive). The GI50 in [12] is 90.4 µM (inactive); in test [13], 9.75 µM (inactive); in test [14] it was > 100 µM (inactive); in test [16] it was > 100 µM (inactive); in test [17], 31.3 µM (inactive); in test [18], 20.9 µM (inactive). In addition, the GI50 in test [19] is 77.1 µM (inactive).

As for `Cc1c(C)c2c(c(N)c1C#N)C(=O)N(CCc1ccccc1)C2=O`, the GI50 in [1] was > 100 µM (inactive); in test [2] it was > 100 µM (inactive); in test [3], > 100 µM (inactive); in [20], > 100 µM (inactive); in test [4], > 100 µM (inactive); in test [5], 29.2 µM (inactive). Moreover, the GI50 in test [6], in test [8], in test [9], in test [10], in test [12] and in [13] was > 100 µM (inactive) in each case. Besides, the GI50 in test [14], in [15], in test [16], in test [17], in [18] and in test [19] was > 100 µM (inactive) each time.

For `COc1ccccc1C[C@@H]1OC2(C=CC(=O)CC2SC(=O)c2ccccc2)O[C@H]1Cc1ccccc1OC` (stereo partly drawn), the GI50 is 1.51 µM (inactive) in test [1]; 1.79 µM (inactive) in [2]; 0.241 µM (active) in [4]; 1.16 µM (inactive) in [5]; 1.64 µM (inactive) in [6]; 1.65 µM (inactive) in test [7]. Besides, the GI50 in [8] was 1.42 µM (inactive); in test [9], 1.56 µM (inactive); in [10], 0.363 µM (active); in [11], 2.03 µM (inactive); in test [12], 1.33 µM (inactive); in test [13], 0.121 µM (active). Further, the GI50 in [14] is 1.02 µM (active); in test [15], 1.67 µM (inactive); in [16] it was 1.75 µM (inactive); in test [17], 2.52 µM (inactive); in test [18] it was 1.6 µM (inactive); in [19], 1.44 µM (inactive).

Regarding `C=CC(Cl)(CBr)CCC(Br)C(C)(C)Cl` (stereo not drawn), the GI50 is 16.5 µM (inactive) in test [1]; 19.8 µM (inactive) in test [3]; 14.8 µM (inactive) in test [20]; 12.8 µM (inactive) in test [4]; 4.05 µM (inactive) in test [5]; 19.5 µM (inactive) in [6]. The GI50 was 15.3 µM (inactive) in [7]; 13 µM (inactive) in test [8]; 13.6 µM (inactive) in test [9]; 6.92 µM (inactive) in [10]; 17 µM (inactive) in [11]; 16.6 µM (inactive) in test [12]. For the same compound, the GI50 is 17.4 µM (inactive) in test [13]; 20.8 µM (inactive) in test [14]; 16.9 µM (inactive) in test [15]; 17.3 µM (inactive) in [16]; 21.3 µM (inactive) in [17]; 16.6 µM (inactive) in test [18]. In [19], the GI50 was 14.4 µM (inactive).

Turning to `CC(C)C1OC23CCCCC2C(C#N)(C#N)C1(C#N)C(=N)O3` (stereo not drawn), the GI50 in test [1] is 33.1 µM (inactive); in test [2], 8.34 µM (inactive); in [3] it was 27.5 µM (inactive); in test [20] it was 13.4 µM (inactive); in test [4], 16 µM (inactive); in test [5], 5.31 µM (inactive). Besides, the GI50 in test [6] is 16.5 µM (inactive); in test [7], 14.5 µM (inactive); in test [8] it was > 10 µM (inactive); in test [9], 12.8 µM (inactive); in [10] it was 12.1 µM (inactive); in [11] it was 26.1 µM (inactive). Moreover, the GI50 was 20.5 µM (inactive) in [13]; 19.2 µM (inactive) in test [14]; 18 µM (inactive) in [15]; 27.4 µM (inactive) in test [16]; 15.2 µM (inactive) in [17]; 17.6 µM (inactive) in [18]. Besides, in [19], the GI50 is 17.4 µM (inactive).

With `Cc1n[nH]c(=O)c2cc(-c3ccccc3)[nH]c12`, the GI50 is 32.8 µM (inactive) in test [1]; > 100 µM (inactive) in test [2]; 36.6 µM (inactive) in [3]; 44.3 µM (inactive) in test [20]; 52.6 µM (inactive) in test [4]; 54 µM (inactive) in test [5]. Moreover, the GI50 in test [6] was > 100 µM (inactive); in test [7], 33.2 µM (inactive); in [8], 70.6 µM (inactive); in test [9], 53.3 µM (inactive); in [10] it was 30.8 µM (inactive); in test [11], 84.1 µM (inactive). Moreover, the GI50 was 52.6 µM (inactive) in test [12]; > 100 µM (inactive) in [13]; 59.7 µM (inactive) in test [14]; > 100 µM (inactive) in [15]; 75.3 µM (inactive) in [17]; 27.5 µM (inactive) in test [18]. In addition, the GI50 in test [19] was 51.2 µM (inactive).

On to `CN(C(=O)C12C3C4C1C1C2C3C41C(=O)O)C(C)(C)C` (stereo not drawn), for which the GI50 in test [1], in [2], in test [3], in [20], in test [4] and in [5] was > 100 µM (inactive) throughout. The GI50 in test [6], in test [7], in test [8], in [9], in test [10] and in [11] was > 100 µM (inactive) each time. Also, the GI50 in [12], in test [13], in [14], in test [15], in [16] and in test [17] was > 100 µM (inactive) in each case. The GI50 in test [18] and in test [19] was > 100 µM (inactive) in each case.

Regarding `O=C(O)CNc1ccc(Cl)c(Cl)c1`, the GI50 was 20 µM (inactive) in test [1]; 17.9 µM (inactive) in test [2]; 23.1 µM (inactive) in [3]; 19.2 µM (inactive) in test [4]; 24 µM (inactive) in [5]; 15.8 µM (inactive) in test [6]. In addition, the GI50 is 40.6 µM (inactive) in test [7]; 1.1 µM (active) in test [8]; 27.4 µM (inactive) in [9]; 13.9 µM (inactive) in [10]; 34.4 µM (inactive) in test [11]; 31.6 µM (inactive) in [12]. The GI50 was 35.3 µM (inactive) in [13]; 28.9 µM (inactive) in test [14]; 33.5 µM (inactive) in [15]; 32.7 µM (inactive) in [17]; 15.6 µM (inactive) in test [18]; 31.1 µM (inactive) in test [19].
